Experimental data from patent publication US11571423B2, “Small molecule modulators of human sting” (Curadev Pharma Limited, priority 2017, dated 2023).
Like-named read-outs stand apart in the source and are kept apart here.

Experiments:
hSTING(R232) = hSTING(R232) (Homo sapiens, UniProt Q86WV6, H232R); assay: Luciferase reporter assay in HEK293T-hSTING-Luciferase cells, R232 (wild type) human STING; type: cell-based; conditions: 20 hr stimulation, read-out: R232 human activity (EC50 range)
Procedure, shortened: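 Clonal HEK293T cells stably expressing STING from a pUNO-1 plasmid plus an ISRE/ISG54-driven secreted luciferase reporter; 5×10^5 cells stimulated with compound for 20 hr. Supernatant luciferase read by luminescence, giving fold-induction over baseline and EC50.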

hSTING(H232) = hSTING(H232) (Homo sapiens, UniProt Q86WV6); assay: Luciferase reporter assay in HEK293T-hSTING-Luciferase cells, H232/REF polymorph; type: cell-based; conditions: H232/REF polymorph of human STING, EC50 range class
Chain of hSTING(H232) (Q86WV6 whole entry): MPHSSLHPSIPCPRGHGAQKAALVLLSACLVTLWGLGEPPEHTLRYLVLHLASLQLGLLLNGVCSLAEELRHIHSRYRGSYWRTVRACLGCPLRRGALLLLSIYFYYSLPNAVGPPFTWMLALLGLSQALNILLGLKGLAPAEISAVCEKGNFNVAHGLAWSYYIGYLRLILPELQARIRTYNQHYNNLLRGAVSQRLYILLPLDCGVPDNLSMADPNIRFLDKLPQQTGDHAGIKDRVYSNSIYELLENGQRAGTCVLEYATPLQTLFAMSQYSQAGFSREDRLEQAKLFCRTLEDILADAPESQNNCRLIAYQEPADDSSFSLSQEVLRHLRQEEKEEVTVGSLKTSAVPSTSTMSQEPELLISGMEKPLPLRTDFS
Text: (§1) Stable Cell Line Generation • a) Stable STING expressing cells—Stable HEK293T STING-expressing cell lines were generated using plasmids purchased from Invivogen, CA, USA, that contain STING cDNA cloned into the pUNO-1 vector under hEF1-HTLV promoter and containing the Blasticidin selection cassette. The plasmids hSTING(R232), hSTING(H232), hSTING(HAQ) were directly procured from Invivogen while hSTING (AQ) and hSTING (Q) were derived from hSTING(HAQ) and hSTING (R232) plasmids respectively by using a PCR based site directed mutagenesis method. These vectors were individually transfected into HEK293T cells using Lipofectamine (Invitrogen) and transfected cells were selected under Blasticidin selection. These transfected cells were further subjected to clonal selection using the limiting dilution method to obtain clonally pure populations of HEK cells transfected with each of the above mentioned human STING variants. Only those clones were selected in which ligand independent activation of STING was minimal. • b) Stable Luciferase reporter gene expressing cells—Stable HEK293T Luciferase reporter gene expressing cell lines were generated using pCDNA4 plasmids under an IRF-inducible promoter. This promoter is comprised of five tandem interferon-stimulated response elements (ISRE) fused to an ISG54 minimal promoter. This vector was transfected into HEK293T cells using Lipofectamine (Invitrogen) and transfected cells were selected under Zeocin selection. These transfected cells were further subjected to clonal selection using the limiting dilution method to obtain clonally pure populations of HEK cells transfected the Luciferase reporter construct. Only those clones were selected in which ligand independent induction of luciferase was minimal.
(§2) 5×10^5 clonally selected HEK293T-hSTING-Luciferase cells were seeded in 384-well plates in growth medium and stimulated with novel compounds. After 20 hr of stimulation supernatant were removed and secretary reporter gene activity were measured using the Quanti-Luc detection system (Invivogen) on a Spectramax i3X luminometer.
(§3) In the tables below, EC50 value ranges for exemplary compounds are given.
(§4) Single nucleotide polymorphisms of human STING have been described, which can affect the functional potency of compounds that modulate the activity of the STING protein (see Yi et. al., PLoS One, October 2013, 8(10), e77846). The 5 major polymorphisms of human STING are shown in FIG. 1, with their prevalence in human populations indicated.
(§5) The tables below show the potency of selected compounds of the invention against the most common polymorphisms.

hSTING(HAQ) = hSTING(HAQ) (Homo sapiens, UniProt Q86WV6, G230A/H232R/R293Q/R71H); assay: Luciferase reporter assay in HEK293T-hSTING-Luciferase cells, HAQ polymorph; type: cell-based; conditions: HAQ polymorph of human STING, EC50 range class
Chain of hSTING(HAQ) (Q86WV6 whole entry R71H/G230A/H232R/R293Q): as the sequence (Q86WV6 whole entry) above, with R71H, G230A, H232R, R293Q counted along it
Text: as §1, §2, §3, §4, §5

IRF pathway = assay: Reporter gene expression assay in THP1-Dual cells, IRF axis (secreted Lucia luciferase); type: cell-based, human; conditions: 20 hr stimulation, EC50 range class, read-out: THP-IRF activity
Experimental: (§6) THP1-Dual™ cells (Invivogen) were derived from the human THP-1 monocyte cell line by stable integration of two inducible reporter constructs. As a result, THP1-Dual™ cells allow the simultaneous study of the NF-κB pathway, by monitoring the activity of secreted SEAP, and the IRF pathway, by assessing the activity of a secreted luciferase (Lucia). 5×10^5 THP1-Dual™ cells were seeded in 384-well plates in growth medium and stimulated with novel compounds. After 20 hr of stimulation supernatants were removed and reporter proteins were readily measured in the cell culture supernatant using QUANTI-Blue™ (Invivogen), a SEAP detection reagent, and QUANTI-Luc™ (Invivogen), a luciferase detection reagent on a Spectramax i3X luminometer.
(§7) EC50 value ranges for exemplary compounds tested in the above assay are given.

NF-κB pathway = assay: Reporter gene expression assay in THP1-Dual cells, NFkB axis (secreted SEAP); type: cell-based, human; conditions: 20 hr stimulation, EC50 range class, read-out: THP-NFκB activity
Experimental: as §6, §7

Chain of hSTING(R232) (Q86WV6 whole entry H232R): as the sequence (Q86WV6 whole entry) above, with H232R counted along it

EC50 (hSTING(R232)) [nM] | EC50 (hSTING(H232)) [nM] | EC50 (hSTING(HAQ)) [nM] | EC50 (IRF pathway; Homo sapiens) [µM] | EC50 (NF-κB pathway; Homo sapiens) [nM] | EC50 (IRF pathway) [µM] | EC50 (NF-κB pathway) [nM] | SMILES
< 1000 | 1000 to 10000 | 1000 to 10000 | > 10 | > 10000 | – | – | CC1c2ccc(C(=O)NCc3c(F)cc(F)cc3F)cc2N(Cc2c(F)cccc2OS(C)(=O)=O)C(=O)N1C (stereo not drawn) [Example 204, 2-((3,4-dimethyl-2-oxo-7-((2,4,6-trifluorobenzyl)carbamoyl)-3,4-dihydroquinazolin-1(2H)-yl)methyl)-3-fluorophenyl methanesulfonate]
< 1000 | < 1000 | < 1000 | 1 to 10 | 1000 to 10000 | – | – | COC(=O)c1ccc(F)c(CN2C(=O)N(C)[C@@H](C)c3ccc(C(=O)NCc4c(F)cc(F)cc4F)cc32)c1Cl [Example 185, (S)-methyl 2-chloro-3-((3,4-dimethyl-2-oxo-7-((2,4,6-trifluorobenzyl)carbamoyl)-3,4-dihydroquinazolin-1(2H)-yl)methyl)-4-fluorobenzoate]
< 1000 | < 1000 | < 1000 | 1 to 10 | 1000 to 10000 | – | – | Cc1cc(CN2C(=O)N(C)C(C)c3ccc(C(=O)NCc4c(F)cc(F)cc4F)cc32)ccn1 (stereo not drawn) [Example 208, 3,4-dimethyl-1-((2-methylpyridin-4-yl)methyl)-2-oxo-N-(2,4,6-trifluorobenzyl)-1,2,3,4-tetrahydroquinazoline-7-carboxamide]
< 1000 | < 1000 | < 1000 | – | – | < 1 | < 1000 | Cc1cccc(F)c1CN1C(=O)N(C)C(C)c2ccc(C(=O)NCc3c(F)cc(F)cc3F)cc21 (stereo not drawn) [Example 203, 1-(2-fluoro-6-methylbenzyl)-3,4-dimethyl-2-oxo-N-(2,4,6-trifluorobenzyl)-1,2,3,4-tetrahydroquinazoline-7-carboxamide]
< 1000 | < 1000 | < 1000 | < 1 | < 1000 | – | – | CC1c2ccc(C(=O)NCc3c(F)cc(F)cc3F)cc2N(Cc2c(F)cccc2C(F)(F)F)C(=O)N1C (stereo not drawn) [Example 196, 1-(2-fluoro-6-(trifluoromethyl)benzyl)-3,4-dimethyl-2-oxo-N-(2,4,6-trifluorobenzyl)-1,2,3,4-tetrahydroquinazoline-7-carboxamide]
– | < 1000 | < 1000 | < 1 | < 1000 | – | – | CC1c2ccc(C(=O)NCc3c(F)cc(F)cc3F)cc2N(Cc2c(F)cccc2Br)C(=O)N1C (stereo not drawn) [Example 193, 1-(2-bromo-6-fluorobenzyl)-3,4-dimethyl-2-oxo-N-(2,4,6-trifluorobenzyl)-1,2,3,4-tetrahydroquinazoline-7-carboxamide]
< 1000 | 1000 to 10000 | 1000 to 10000 | > 10 | > 10000 | – | – | Cc1ccc(CNC(=O)c2ccc3c(c2)N(Cc2c(F)cccc2Cl)C(=O)N(C)C3C)o1 (stereo not drawn) [Example 212, 1-(2-chloro-6-fluorobenzyl)-3,4-dimethyl-N-((5-methylfuran-2-yl)methyl)-2-oxo-1,2,3,4-tetrahydroquinazoline-7-carboxamide]
1000 to 10000 | 1000 to 10000 | 1000 to 10000 | > 10 | > 10000 | – | – | CC1c2ccc(C(=O)NCc3c(F)cc(F)cc3F)cc2N(Cc2c(F)cccc2N(C)C)C(=O)N1C (stereo not drawn) [Example 175, 1-(2-(dimethylamino)-6-fluorobenzyl)-3,4-dimethyl-2-oxo-N-(2,4,6-trifluorobenzyl)-1,2,3,4-tetrahydroquinazoline-7-carboxamide]
< 1000 | 1000 to 10000 | 1000 to 10000 | 1 to 10 | 1000 to 10000 | – | – | C[C@H]1c2ccc(C(=O)NCc3c(F)cc(F)cc3F)cc2N(Cc2ccc(N=[N+]=[N-])cc2)C(=O)N1C [Example 239, (S)-1-(4-azidobenzyl)-3,4-dimethyl-2-oxo-N-(2,4,6-trifluorobenzyl)-1,2,3,4-tetrahydroquinazoline-7-carboxamide]
< 1000 | < 1000 | < 1000 | < 1 | < 1000 | – | – | COc1cccc(F)c1CN1C(=O)N(C)C(C)c2ccc(C(=O)NCc3c(F)cc(F)cc3F)cc21 (stereo not drawn) [Example 153, 1-(2-fluoro-6-methoxybenzyl)-3,4-dimethyl-2-oxo-N-(2,4,6-trifluorobenzyl)-1,2,3,4-tetrahydroquinazoline-7-carboxamide]
< 1000 | < 1000 | < 1000 | < 1 | < 1000 | – | – | COc1cc(F)c(CN2C(=O)N(C)[C@@H](C)c3ccc(C(=O)NCc4c(F)cc(F)cc4F)cc32)c(Cl)c1 [Example 293, (S)-1-(2-chloro-6-fluoro-4-methoxybenzyl)-3,4-dimethyl-2-oxo-N-(2,4,6-trifluorobenzyl)-1,2,3,4-tetrahydroquinazoline-7-carboxamide]
< 1000 | < 1000 | < 1000 | < 1 | < 1000 | – | – | COc1cc(F)c(CNC(=O)c2ccc3c(c2)N(Cc2c(F)cccc2Cl)C(=O)N(C)[C@H]3C)c(F)c1 [Example 246, (S)-1-(2-chloro-6-fluorobenzyl)-N-(2,6-difluoro-4-methoxybenzyl)-3,4-dimethyl-2-oxo-1,2,3,4-tetrahydroquinazoline-7-carboxamide]
< 1000 | > 10000 | > 10000 | > 10 | > 10000 | – | – | CC1c2ccc(C(=O)NCc3c(F)cc(F)cc3F)cc2N(Cc2cc(C(N)=O)ccc2F)C(=O)N1C (stereo not drawn) [Example 167, 1-(5-carbamoyl-2-fluorobenzyl)-3,4-dimethyl-2-oxo-N-(2,4,6-trifluorobenzyl)-1,2,3,4-tetrahydroquinazoline-7-carboxamide]
1000 to 10000 | > 10000 | > 10000 | > 10 | > 10000 | – | – | CN1Cc2ccc(C(=O)NCc3c(F)cc(F)cc3F)cc2N(Cc2c(F)cccc2C#N)C1=O [Example 39, 1-(2-cyano-6-fluorobenzyl)-3-methyl-2-oxo-N-(2,4,6-trifluorobenzyl)-1,2,3,4-tetrahydroquinazoline-7-carboxamide]
1000 to 10000 | 1000 to 10000 | 1000 to 10000 | 1 to 10 | 1000 to 10000 | – | – | Cc1cc(CN2C(=O)N(C)Cc3ccc(C(=O)NCc4c(F)cc(F)cc4F)cc32)on1 [Example 54, 3-methyl-1-((3-methylisoxazol-5-yl)methyl)-2-oxo-N-(2,4,6-trifluorobenzyl)-1,2,3,4-tetrahydroquinazoline-7-carboxamide]
< 1000 | 1000 to 10000 | 1000 to 10000 | > 10 | 1000 to 10000 | – | – | Cc1cccc(-c2nc(CN3C(=O)N(C)Cc4ccc(C(=O)NCc5c(F)cc(F)cc5F)cc43)c(C)o2)c1 [Example 38, 3-methyl-1-((5-methyl-2-(m-tolyl)oxazol-4-yl)methyl)-2-oxo-N-(2,4,6-trifluorobenzyl)-1,2,3,4-tetrahydroquinazoline-7-carboxamide]
< 1000 | < 1000 | < 1000 | 1 to 10 | 1000 to 10000 | – | – | C[C@H]1c2ccc(C(=O)NCc3c(F)cc(O)cc3F)cc2N(Cc2c(F)cccc2Cl)C(=O)N1C [Example 252, (S)-1-(2-chloro-6-fluorobenzyl)-N-(2,6-difluoro-4-hydroxybenzyl)-3,4-dimethyl-2-oxo-1,2,3,4-tetrahydroquinazoline-7-carboxamide]
